Like-named read-outs stand apart in the source and are kept apart here.
Biological target: 11β-HSD1 (Homo sapiens, UniProt P28845)
Test: biochemical
Settings: for IC50: IC50 Range, Biological Test Example 1, microsomes from CHO cells overexpressing human 11β-HSD1; for inhibition at 0.1 µM: read-out: Average % inhibition at 100 nM, Biological Test Example 1
[1] = read-out: Average % inhibition at 111.1 nM, Biological Test Example 1, 111.1 nM compound

11β-HSD1, sequence (P28845 whole entry): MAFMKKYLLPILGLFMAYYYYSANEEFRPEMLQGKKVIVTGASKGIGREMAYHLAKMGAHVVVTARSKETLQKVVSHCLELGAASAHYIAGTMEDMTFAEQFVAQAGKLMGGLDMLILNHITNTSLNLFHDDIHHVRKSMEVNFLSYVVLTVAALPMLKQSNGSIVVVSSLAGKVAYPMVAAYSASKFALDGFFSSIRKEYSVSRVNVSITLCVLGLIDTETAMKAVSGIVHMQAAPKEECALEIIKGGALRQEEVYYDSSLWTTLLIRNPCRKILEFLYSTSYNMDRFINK

Compound	IC50 [nM]	inhibition at 0.1 µM (100 nM) [%]	inhibition at 0.1 µM (100 nM compound) [%]	inhibition at 0.1111 µM [1] [%]	also measured
C[C@@H](c1cccc(Br)c1)N1CC[C@](CCC(N)=O)(c2ccc(F)cc2)OC1=O [EXAMPLE 358, 3-((R)-3-((S)-1-(3-bromophenyl)ethyl)-6-(4-fluorophenyl)-2-oxo-1,3-oxazinan-6-yl)propanamide]	< 100	84			
C[C@@H](c1ccc(Br)cc1)N1CC[C@](CCC(=O)O)(c2ccc(F)cc2)OC1=O [EXAMPLE 526, 3-((R)-3-((S)-1-(4-bromophenyl)ethyl)-6-(4-fluorophenyl)-2-oxo-1,3-oxazinan-6-yl)propanoic acid]	< 100	54.6			
C[C@@H](c1ccc(-c2ccc(F)cc2)cc1)N1CC[C@](CCN2CC[C@@H](F)C2)(c2ccc(F)cc2)OC1=O [EXAMPLE 466, (R)-3-((S)-1-(4′-fluorobiphenyl-4-yl)ethyl)-6-(4-fluorophenyl)-6-(2-((R)-3-fluoropyrrolidin-1-yl)ethyl)-1,3-oxazinan-2-one]	< 100	55.3			
C[C@@H](c1cccc(Br)c1)N1CC[C@](CC(C)(C)O)(c2ccc(F)cc2)OC1=O [EXAMPLE 356, (S)-3-((S)-1-(3-bromophenyl)ethyl)-6-(4-fluorophenyl)-6-(2-hydroxy-2-methylpropyl)-1,3-oxazinan-2-one]	< 100	92			
C=CCC1(c2ccc(F)cc2)CCN(C(C)c2ccc(-c3ccc(F)cc3F)cn2)C(=O)O1 (stereo not drawn) [EXAMPLE 131, 6-allyl-3-(1-(5-(2,4-difluorophenyl)pyridin-2-yl)ethyl)-6-(4-fluorophenyl)-1,3-oxazinan-2-one]	> 1000		6.6	11.3	
O=C1O[C@@](CCO)(c2ccccc2)CCN1c1cccc(-c2ccc(F)cc2)[n+]1[O-] [EXAMPLE 126, (S)-2-(4-fluorophenyl)-6-(6-(2-hydroxyethyl)-2-oxo-6-phenyl-1,3-oxazinan-3-yl)pyridine 1-oxide]	< 100		79	80.7	
C[C@@H](c1ccc(C2CC2)cc1)N1CC[C@](CCCO)(c2ccc(F)cc2)OC1=O [EXAMPLE 125, (R)-3-((S)-1-(4-cyclopropylphenyl)ethyl)-6-(4-fluorophenyl)-6-(3-hydroxypropyl)-1,3-oxazinan-2-one]	< 100		98.3	94	
C=CCC1(c2ccc(F)cc2)CCN([C@@H](C)c2ccc(Cl)cc2)C(=O)O1 (single isomer, unassigned) [EXAMPLE 196 Isomer 1]	< 100		101		
CC(O)C[C@]1(c2ccccc2)CCN([C@@H](C)c2ccc(-c3ccc(F)cc3)cc2)C(=O)O1 (stereo partly drawn) [EXAMPLE 224, (6S)-3-((1S)-1-(4′-fluorobiphenyl-4-yl)ethyl)-6-(2-hydroxypropyl)-6-phenyl-1,3-oxazinan-2-one]	< 100		97.3		
CC[C@@H](c1ccc(Br)cc1)N1CC[C@](CCCO)(c2ccc(F)cc2)OC1=O [EXAMPLE 241, (R)-3-((S)-1-(4-bromophenyl)propyl)-6-(4-fluorophenyl)-6-(3-hydroxypropyl)-1,3-oxazinan-2-one]	< 100		96.7		
COC(=O)NC(C)(C)C[C@]1(c2ccc(F)cc2)CCN([C@@H](C)c2ccc(Br)cc2)C(=O)O1 [EXAMPLE 606, methyl 1-((S)-3-((S)-1-(4-bromophenyl)ethyl)-6-(4-fluorophenyl)-2-oxo-1,3-oxazinan-6-yl)-2-methylpropan-2-ylcarbamate]	< 100	96.2			
C[C@@H](c1ccc(-c2ccc(F)cc2F)cc1)N1CC[C@](CCC(=O)O)(c2ccccc2)OC1=O [EXAMPLE 503, 3-((R)-3-((S)-1-(2′,4′-difluorobiphenyl-4-yl)ethyl)-2-oxo-6-phenyl-1,3-oxazinan-6-yl)propanoic acid]	< 100	90.1			
CC1(c2ccccc2)CCN(c2nccc(-c3cccc(F)c3)n2)C(=O)O1 (stereo not drawn) [EXAMPLE 62, 3-(4-(3-fluorophenyl)pyrimidin-2-yl)-6-methyl-6-phenyl-1,3-oxazinan-2-one]	100 to 1000			20.5	
CC1(c2ccccc2)CCN(c2nccc(Cl)n2)C(=O)O1 (stereo not drawn) [EXAMPLE 57, 3-(4-chloropyrimidin-2-yl)-6-methyl-6-phenyl-1,3-oxazinan-2-one]	100 to 1000				inhibition at 0.1111 µM (read-out: Average % inhibition at 111.1 nM): 10.4%
C[C@@H](c1ccc(Cl)cc1)N1CC[C@](CCCNS(C)(=O)=O)(c2ccc(F)cc2)OC1=O [EXAMPLE 384, N-(3-((R)-3-((S)-1-(4-chlorophenyl)ethyl)-6-(4-fluorophenyl)-2-oxo-1,3-oxazinan-6-yl)propyl)methanesulfonamide]	< 100	89.2			
C=CC1(c2ccc(F)cc2)CCN([C@@H](C)c2ccccc2)C(=O)O1 (single isomer, unassigned) [EXAMPLE 113 Isomer 1]	< 100			83.2	
C[C@@H](c1cccc(C(F)(F)F)c1)N1CC[C@](CCC(N)=O)(c2ccc(F)cc2)OC1=O [EXAMPLE 299, 3-((R)-6-(4-fluorophenyl)-2-oxo-3-((S)-1-(3-(trifluoromethyl)phenyl)ethyl)-1,3-oxazinan-6-yl)propanamide]	< 100		71.7		

Compound	IC50 [nM]	inhibition at 0.1 µM (100 nM) [%]	inhibition at 0.1 µM (100 nM compound) [%]	inhibition at 0.1111 µM [1] [%]	also measured
C=CC[C@]1(c2ccc(F)cc2)CCN([C@@H](C)c2ccc(C(=O)N3CCCCC3)cc2)C(=O)O1 [EXAMPLE 243, (R)-6-allyl-6-(4-fluorophenyl)-3-((S)-1-(4-(piperidine-1-carbonyl)phenyl)ethyl)-1,3-oxazinan-2-one]	< 100		38.9		
C[C@@H](c1ccc(-c2ccc(F)cc2)cc1)N1CC[C@](CCCNS(C)(=O)=O)(c2ccccc2)OC1=O [EXAMPLE 270, N-(3-((R)-3-((S)-1-(4′-fluorobiphenyl-4-yl)ethyl)-2-oxo-6-phenyl-1,3-oxazinan-6-yl)propyl)methanesulfonamide]	< 100		96.1		
C[C@@H](C1CCCCC1)N1CC[C@](CCCO)(c2ccc(F)cc2)OC1=O [EXAMPLE 122, (R)-3-((S)-1-cyclohexylethyl)-6-(4-fluorophenyl)-6-(3-hydroxypropyl)-1,3-oxazinan-2-one]	< 100		94.1	95.6	
C[C@@H](c1ccc(F)cc1)N1CC[C@](CCCO)(c2ccc(F)cc2)OC1=O [EXAMPLE 285, (R)-6-(4-fluorophenyl)-3-((S)-1-(4-fluorophenyl)ethyl)-6-(3-hydroxypropyl)-1,3-oxazinan-2-one]	< 100		96.2		
CC[C@@H](c1ccc(OC(F)F)cc1)N1CC[C@](CCC(N)=O)(c2ccccc2)OC1=O [EXAMPLE 537, 3-((R)-3-((S)-1-(4-(difluoromethoxy)phenyl)propyl)-2-oxo-6-phenyl-1,3-oxazinan-6-yl)propanamide]	< 100	94.7			
C[C@@H](c1ccc(-c2ccc(F)cc2F)cc1)N1CC[C@](CCCOC(N)=O)(c2ccc(F)cc2)OC1=O [EXAMPLE 272, 3-((R)-3-((S)-1-(2′,4′-difluorobiphenyl-4-yl)ethyl)-6-(4-fluorophenyl)-2-oxo-1,3-oxazinan-6-yl)propyl carbamate]	< 100		93.8		
Cc1ccc(C2(C)CCN([C@@H](C)c3ccccc3)C(=O)O2)cc1 (stereo partly drawn) [EXAMPLE 88, 6-methyl-3-((S)-1-phenylethyl)-6-p-tolyl-1,3-oxazinan-2-one]	< 100			97.1	
CC[C@@H](c1ccc(Br)cc1)N1CC[C@](CC(O)CO)(c2ccc(F)cc2)OC1=O (single isomer, unassigned) [EXAMPLE 255 Isomer 1]	< 100		92.5		
CNCC(O)C[C@]1(c2ccc(F)cc2)CCN([C@@H](C)c2ccc(-c3ccc(F)cc3F)cc2)C(=O)O1 (stereo partly drawn) [EXAMPLE 265, (6S)-3-((S)-1-(2′,4′-difluorobiphenyl-4-yl)ethyl)-6-(4-fluorophenyl)-6-(2-hydroxy-3-(methylamino)propyl)-1,3-oxazinan-2-one]	< 100		56.8		
C[C@@H](c1ccc(-c2ccc(F)cc2F)cc1)N1CC[C@](CCC(C)(C)O)(c2ccccc2)OC1=O [EXAMPLE 260, (R)-3-((S)-1-(2′,4′-difluorobiphenyl-4-yl)ethyl)-6-(3-hydroxy-3-methylbutyl)-6-phenyl-1,3-oxazinan-2-one]	< 100		94.1		
NC(=O)c1ccc(N2CCC[C@H](N3CC[C@](CCCO)(c4ccc(F)cc4)OC3=O)C2)nc1 [EXAMPLE 584, 6-((S)-3-((R)-6-(4-fluorophenyl)-6-(3-hydroxypropyl)-2-oxo-1,3-oxazinan-3-yl)piperidin-1-yl)nicotinamide]					inhibition at 0.1111 µM (read-out: Average % inhibition at 111.1 nM, Biological Test Example 1, 111.1 nM): 77%
CC(C)(O)CC1(c2ccccc2)CCN(c2cccc(-c3ccc(F)cc3F)c2)C(=O)O1 (stereo not drawn) [EXAMPLE 117, 3-(2′,4′-difluorobiphenyl-3-yl)-6-(2-hydroxy-2-methylpropyl)-6-phenyl-1,3-oxazinan-2-one]	< 100			82.8	
Cc1ccc(C2(C)CCN([C@@H](C)c3ccccc3)C(=O)O2)cc1 (single isomer, unassigned) [EXAMPLE 88 Isomer 1]	100 to 1000			74.4	
CNS(=O)(=O)c1ccc(-c2cccc(N3CCC(C)(c4ccccc4)OC3=O)c2)cc1 (stereo not drawn) [EXAMPLE 47, N-methyl-3′-(6-methyl-2-oxo-6-phenyl-1,3-oxazinan-3-yl)biphenyl-4-sulfonamide]	100 to 1000			36.3	
C[C@@H](c1ccc(Br)cc1)N1CC[C@](CCNCCF)(c2ccc(F)cc2)OC1=O [EXAMPLE 375, (R)-3-((S)-1-(4-bromophenyl)ethyl)-6-(2-(2-fluoroethylamino)ethyl)-6-(4-fluorophenyl)-1,3-oxazinan-2-one]	< 100	70.9			
CC(CO)C[C@]1(c2ccc(F)cc2)CCN([C@@H](C)c2ccc(Br)cc2)C(=O)O1 (single isomer, unassigned) [EXAMPLE 577 Isomer 1]	< 100	99.5			
